Experimental findings from ChEMBL document CHEMBL5257035, “Nucleoside Derived Antibiotics to Fight Microbial Drug Resistance: New Utilities for an Established Class of Drugs?” (J Med Chem, 2016) are described below.

In brackets after ≈: the same amount, converted by molar mass.

A word on the Ki: it is the dissociation constant of the complex between target and ligand, obtained from inhibition or displacement. Higher therefore signals weaker binding. In general, MIC refers to the lowest concentration found to suppress growth. In general, IC50 refers to the concentration at which inhibition is half-maximal. As usually defined, the inhibition is the drop in the measured response relative to a control, in per cent.

The target of one test is Proline--tRNA ligase (Escherichia coli, UniProt P16659). In words: Binding affinity to Escherichia coli K12 Prolyl-tRNA synthetase.
The next test has as its system Streptococcus pyogenes. In words: Antimicrobial activity against Streptococcus pyogenes ATCC 12344 assessed as reduction in microbial growth by broth microdilution method. Type of test: functional.
Test [1] has as its system Staphylococcus aureus. The test can be described thus: Antibacterial activity against methicillin-resistant Staphylococcus aureus assessed as reduction in bacterial growth by broth dilution method. Format: functional. On the technique in general: In broth dilution the organism is exposed to a series of concentrations in liquid medium.
Another test relates to Escherichia coli. In words: Antibacterial activity against Escherichia coli K12 assessed as bacterial growth inhibition by broth microdilution method. Format: functional.
In test [2] the test system is Pseudomonas aeruginosa. In words: Antibacterial activity against Pseudomonas aeruginosa assessed as bacterial growth reduction. Format: functional.
The target of test [3] is Phospho-N-acetylmuramoyl-pentapeptide-transferase (Bacillus subtilis (strain 168), UniProt Q03521). In words: Inhibition of Bacillus subtilis MraY.
The test system of test [4] is Pseudomonas aeruginosa. The test can be described thus: Antibacterial activity against Pseudomonas aeruginosa assessed as reduction in bacterial growth. Format: functional.
The test system of test [5] is Pseudomonas aeruginosa. The test can be described thus: Antimicrobial activity against Pseudomonas aeruginosa ATCC 27853 assessed as inhibition of microbial growth.
In test [6] the target is Phospho-N-acetylmuramoyl-pentapeptide-transferase (Staphylococcus aureus, UniProt P0C1R8). The test can be described thus: Inhibition of Staphylococcus aureus MraY.
Test [7] has as its system Pseudomonas aeruginosa. In words: Antibacterial activity against Pseudomonas aeruginosa ATCC 27853 assessed as bacterial growth inhibition at 32 ug/ml measured after 16 hrs by broth microdilution method. Type of test: functional. To be noted: dose 32 µg/ml.
The test system of test [8] is Candida albicans. In words: […] activity against Candida albicans assessed as […] measured after 24 hrs by microtitre dilution method. Format: functional.
The subject of test [9] is Candida albicans. In words: Antifungal activity against Candida albicans ATCC 10231 assessed as reduction in fungal growth incubated for 12 hrs by broth microdilution method. Type of test: functional.
Test [10] relates to Pseudomonas aeruginosa. In words: Antibacterial activity against Pseudomonas aeruginosa ATCC 27853 assessed as reduction in microbial growth by broth microdilution method. Format: functional.
Test [11] has as its system Mycobacterium tuberculosis. In words: Antimycobacterial activity against Mycobacterium tuberculosis H37Rv assessed as reduction in bacterial growth. Format: functional.
The test system of another test is Fusarium oxysporum. The test can be described thus: Antifungal activity against Fusarium oxysporum assessed as inhibition of fungal growth. Type of test: functional.
The test system of test [12] is Cryptococcus neoformans. In words: Antifungal activity against Cryptococcus neoformans assessed as fungal growth inhibition. Format: functional.
The test system of test [13] is Candida albicans. In words: Antifungal activity against Candida albicans assessed as inhibition of fungal growth. Type of test: functional.
For test [14], the system named is Staphylococcus aureus. The test can be described thus: Antimicrobial activity against methicillin-resistant Staphylococcus aureus 10925 assessed as reduction in microbial growth by broth microdilution method. Format: functional.
The target in test [15] is Phospho-N-acetylmuramoyl-pentapeptide-transferase (Bacillus subtilis (strain 168)) (UniProt Q03521). The test can be described thus: Inhibition of Bacillus subtilis MraY at 2.3 uM relative to control.
In test [16] the test system is Cryptococcus neoformans. In words: Antifungal activity against Cryptococcus neoformans assessed as reduction in fungal growth. Type of test: functional.
The next test relates to Coccidioides immitis. In words: Antifungal activity against Coccidioides immitis assessed as reduction in fungal growth. Format: functional.
The test system of a further test is Aspergillus niger. The test can be described thus: Antifungal activity against Aspergillus niger MTCC 282 assessed as reduction in microbial growth measured after 48 hrs by broth dilution method. Type of test: functional.
Test [17] has as its target Phospho-N-acetylmuramoyl-pentapeptide-transferase (Bacillus subtilis (strain 168)) (UniProt Q03521). The test can be described thus: Inhibition of Bacillus subtilis MraY at 11.4 uM relative to control.

Chain of Phospho-N-acetylmuramoyl-pentapeptide-transferase (Bacillus subtilis (strain 168)) (Q03521 whole entry): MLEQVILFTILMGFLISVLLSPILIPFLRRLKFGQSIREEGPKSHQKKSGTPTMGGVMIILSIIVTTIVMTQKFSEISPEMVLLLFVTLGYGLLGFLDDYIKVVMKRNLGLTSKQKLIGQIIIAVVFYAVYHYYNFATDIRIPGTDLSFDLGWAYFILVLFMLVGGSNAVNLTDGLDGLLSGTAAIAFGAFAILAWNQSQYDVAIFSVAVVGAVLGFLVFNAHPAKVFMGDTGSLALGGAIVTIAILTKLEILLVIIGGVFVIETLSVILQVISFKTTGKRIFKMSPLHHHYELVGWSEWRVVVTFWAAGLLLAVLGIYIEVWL
Chain of Phospho-N-acetylmuramoyl-pentapeptide-transferase (Bacillus subtilis (strain 168), UniProt Q03521) (Q03521 whole entry): as above
Chain of Proline--tRNA ligase (P16659 whole entry): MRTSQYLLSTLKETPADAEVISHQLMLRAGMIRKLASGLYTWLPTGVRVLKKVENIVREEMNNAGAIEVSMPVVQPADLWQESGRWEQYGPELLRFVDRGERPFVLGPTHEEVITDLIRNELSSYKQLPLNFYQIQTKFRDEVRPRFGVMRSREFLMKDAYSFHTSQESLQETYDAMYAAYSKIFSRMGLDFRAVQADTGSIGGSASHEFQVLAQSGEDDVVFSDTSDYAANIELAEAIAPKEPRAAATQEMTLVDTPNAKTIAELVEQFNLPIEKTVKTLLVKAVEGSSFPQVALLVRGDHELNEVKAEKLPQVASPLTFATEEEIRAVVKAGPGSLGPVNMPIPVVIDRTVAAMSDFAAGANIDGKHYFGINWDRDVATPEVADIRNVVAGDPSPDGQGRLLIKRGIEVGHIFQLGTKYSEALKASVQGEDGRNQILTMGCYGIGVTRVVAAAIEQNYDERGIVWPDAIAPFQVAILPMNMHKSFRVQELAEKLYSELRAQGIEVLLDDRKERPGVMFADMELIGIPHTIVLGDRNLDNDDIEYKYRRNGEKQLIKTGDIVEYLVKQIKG
Chain of Phospho-N-acetylmuramoyl-pentapeptide-transferase (Staphylococcus aureus, UniProt P0C1R8) (P0C1R8 whole entry): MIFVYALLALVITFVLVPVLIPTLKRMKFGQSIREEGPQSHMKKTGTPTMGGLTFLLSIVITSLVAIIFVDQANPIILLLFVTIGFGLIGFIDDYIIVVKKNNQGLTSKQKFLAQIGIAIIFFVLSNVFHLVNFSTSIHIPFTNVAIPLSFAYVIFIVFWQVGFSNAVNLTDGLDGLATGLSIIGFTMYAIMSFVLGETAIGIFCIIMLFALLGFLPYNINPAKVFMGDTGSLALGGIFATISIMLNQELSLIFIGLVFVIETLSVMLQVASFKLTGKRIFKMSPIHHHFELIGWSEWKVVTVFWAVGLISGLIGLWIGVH

In the case of `Nc1ncnc2c1ncn2[C@@H]1O[C@H](COS(=O)(=O)NC(=O)[C@H]2CCCN2)[C@@H](O)[C@H]1O`, the Ki on Proline--tRNA ligase amounted to 490 nM.

Take `O=c1[nH]c(=O)n([C@H]2C[C@H](O)[C@@H](CO)O2)cc1F` [FLOXURIDINE]: the minimal inhibitory concentration (MIC) in the test with Streptococcus pyogenes stood at 0.003 µg/mL.

Consider `NC[C@H]1O[C@@H](O[C@@H](c2cn(CCCCCCCCCCOc3ccc(C(=O)c4ccccc4)cc3)nn2)[C@H]2O[C@@H](n3ccc(=O)[nH]c3=O)[C@H](O)[C@@H]2O)[C@H](O)[C@@H]1O`, for which the MIC with Staphylococcus aureus [1] was found to be 8 µg/mL (≈ 10.3 µM).

Turning to `Nc1nc2c(ncn2[C@@H]2O[C@H](CO)[C@@H](O)[C@H]2O)c(=O)o1`, the MIC in the test with Escherichia coli was determined as 12.5 µg/mL (≈ 44 µM).

For `C[C@@H](NC(=O)N[C@@H](Cc1c[nH]c2ccccc12)C(=O)O)C(=O)N[C@H](C(=O)N/C=C1/C[C@@H](O)[C@H](n2ccc(=O)[nH]c2=O)O1)[C@H](C)N(C)C(=O)[C@@H](N)CN`, the MIC with Pseudomonas aeruginosa [2] turned out to be 16 µg/mL (≈ 22 µM); with Pseudomonas aeruginosa [4] it was 32 µg/mL (≈ 44 µM); with Pseudomonas aeruginosa [5] it was 4 µg/mL. Further, 22 nM corresponded to half-maximal inhibition in [3] (IC50).

In [6], `COC(=O)C1=C[C@@H](O)[C@@H](O)[C@H](O[C@@H](C(N)=O)[C@H]2O[C@@H](n3ccc(=O)[nH]c3=O)[C@H](O)[C@@H]2OC)O1` registered a concentration for half-maximal inhibition (IC50) of 27 nM.

Turning to `CCCCCCCCCCCCCCCCC(=O)NC(CCCCCCCCCCCCCCC)C(=O)[C@H](NCCCC(=O)NCCCCNC(=N)N)[C@H](O[C@@H]1O[C@H](CN)[C@@H](O)[C@H]1O)[C@H]1O[C@@H](n2ccc(=O)[nH]c2=O)[C@H](O)[C@@H]1O` (some centres undefined), the MIC with Pseudomonas aeruginosa [7] was found to be 4 µg/mL (≈ 3.56 µM).

In the case of `NC(=O)OC[C@H](O)[C@@H](O)[C@H](N)C(=O)N[C@H](C(=O)O)[C@H]1O[C@@H](n2cc(C=O)[nH]c2=O)[C@H](O)[C@@H]1O`, the minimum inhibitory concentration (MIC) in the test with Candida albicans [8] stood at 6 µg/mL (≈ 12.6 µM).

As to `CC1(C)O[C@@H]2[C@H](O1)[C@@H](Cn1cc(COc3ccccc3)nn1)O[C@H]2n1ccc(=O)[nH]c1=O`, the MIC in the test with Candida albicans [9] amounted to 8 µg/mL (≈ 18.1 µM).

As for `CN(C[C@H](NC(=O)[C@H](CC[S+](C)[O-])NC(=O)N[C@@H](Cc1c[nH]c2ccccc12)C(=O)O)C(=O)N/C=C1/C[C@@H](O)[C@H](n2ccc(=O)[nH]c2=O)O1)C(=O)[C@@H](N)Cc1cccc(O)c1` (some centres undefined), the values for the MIC (in the test on Pseudomonas aeruginosa [10]; in test [11]) were 8 µg/mL and 8 µg/mL (≈ 9.24 µM), respectively.

With `COc1ccc(OCc2cn(C[C@H]3O[C@@H](n4ccc(=O)[nH]c4=O)[C@@H]4OC(C)(C)O[C@@H]43)nn2)cc1`, the MIC with Fusarium oxysporum was 32 µg/mL (≈ 67.9 µM); in the test with Cryptococcus neoformans [12] it was 8 µg/mL (≈ 17 µM); with Candida albicans [13], 24 µg/mL (≈ 50.9 µM).

As for `Cc1cn([C@H]2C[C@H](N=[N+]=[N-])[C@@H](CO)O2)c(=O)[nH]c1=O` [ZIDOVUDINE], the minimal inhibitory concentration (MIC) with Escherichia coli is 10 µg/mL (≈ 37.4 µM).

`Nc1ccn([C@@H]2O[C@H](CO)[C@@H](O)C2(F)F)c(=O)n1` [GEMCITABINE]: the minimum inhibitory concentration (MIC) with Staphylococcus aureus [14] came to 0.002 µg/mL.

In test [15], `C[C@H](N)C(=O)N(C)CCOC[C@H]1O[C@@H](n2ccc(=O)[nH]c2=O)[C@H](O)[C@@H]1O` came in with an inhibition of 97%.

As for `CC(C)C[C@H](N)C(=O)N[C@H](C(=O)O)[C@@H]1C[C@@H](O)[C@@H](O)[C@H](n2ccc(=O)[nH]c2=O)O1`, the figures for the minimum inhibitory concentration (MIC) in the test with Cryptococcus neoformans [16], with Coccidioides immitis and in the test with Aspergillus niger were 0.25 µg/mL (≈ 0.603 µM), 0.25 µg/mL (≈ 0.603 µM) and 0.03 µg/mL, respectively.

In test [17], `NC[C@H]1O[C@@H](OC[C@H]2O[C@@H](n3ccc(=O)[nH]c3=O)[C@H](OS(=O)(=O)O)C2(F)F)[C@H](O)[C@@H]1O` yielded an inhibition of 29%.
